The values below come from patent publication US20250205233A1, “EPIDERMAL GROWTH FACTOR RECEPTOR (EGFR) TYROSINE KINASE INHIBITORS IN COMBINATION WITH AN AKT INHIBITOR FOR THE TREATMENT OF CANCER” (AstraZeneca AB, priority 2022, published 2025).

Entries after “also recorded” stand apart in the source; their conditions may differ. Where two headings read alike, the source gives them in different places.

In assay [1] the test system is PC9-PIK3CAm cells. The experiment in a line: Clonogenic assay. Type of assay: cell-based, human. As to conditions: osimertinib 160 nM, 8 days, crystal violet. The text has this: Cells were stained with Crystal violet at the end of the treatment (8 days) and cell density (% surface) quantified by ImageJ.
The test system of assay [2] is HCC-827 PTEN^KO xenograft. As to conditions: mouse.
Description: (§1) e) PC9 PTEN-KO and HCC827 PTEN-KO cell lines were cultured in RPMI1640 supplemented with 10% FCS and cultured in a humidified incubator with 5% CO2 at 37° C. PC9 PTEN-KO and HCC827 PTEN-KO xenografts were established by subcutaneous implantation of 5×10^6, cells per animal, in 100 μL of cell suspension including 50% matrigel, into the flank of female NOD/SCID and nude mice respectively. All mice were older than 6 weeks at the time of cell implant. Tumour growth was monitored twice weekly by bilateral calliper measurements and tumour volume calculated using the formula TV (mm3)=[length (mm)×width (mm)2]×0.5, where the length and the width are the longest and the shortest diameters of the tumour.
Assay [3] has as its system PC9 PTEN^KO xenograft. Kind of assay: Xenograft model, tumour volume. The format is in vivo, NOD/SCID mice.
Description: as §1
Assay [4] has as its system P-EGFR, MAPK signalling, P-AKT and P-S6 in PC9-PIK3CAm cells. The experiment in a line: Intracellular changes by WB analysis. The settings on record: 4 h. The format is cell-based, human.
In assay [5] the test system is PC9 PTEN^KO cells. The experiment in a line: Clonogenic assay (long term). As to conditions: 160 nM osimertinib. The format is cell-based, human.
Assay [6] has as its system PC9 PIK3CA^H1047R cells. As to conditions: osimertinib alone.
In assay [7] the test system is p-S6 in PC9 PTEN^KO cells. The experiment in a line: Intracellular changes by WB analysis. Type of assay: cell-based, human. As to conditions: treated for 3 weeks with osimertinib 160 nM.
The subject of assay [8] is PIK3CA H1047R and PIK3CA E453K-positive cells. The experiment in a line: Osimertinib selection of CRISPR knock-in cell pools, DNA sequencing. Type of assay: cell-based, human. The settings on record: osimertinib (100 nM) for 3 weeks; NGS and SANGER sequencing. The text has this:
As the efficiency of knock-ins using this technology is usually low, only a small proportion of cells was expected to be genetically modified, thus mimicking the emergence of a co-occurring resistance mutation in a tumour.

The subject of assay [9] is HCC-827 PTEN^KO cells. Type of assay: cell-based, human.

Consider `C=CC(=O)Nc1cc(Nc2nccc(-c3cn(C)c4ccccc34)n2)c(OC)cc1N(C)CCN(C)C` [osimertinib, N-(2-{2-dimethylaminoethyl-methylamino}-4-methoxy-5-{[4-(1-methylindol-3-yl)pyrimidin-2-yl]amino}phenyl)prop-2-enamide], for which the “clonogenic growth (cell density): resistance to osimertinib compared to parental PC9” value in [1] is “developed resistance”. Besides, the “degree of resistance to Osimertinib in vivo” value in [2] and in assay [3] was “at best very modest” each time. For the same molecule, the “levels of P-AKT and P-S6 (western blot)” value in assay [4] (160 nM osimertinib alone, PC9-PIK3CAm cells) was “refractory”. Moreover, the “P-EGFR levels and MAPK signalling (western blot)” value in assay [4] (160 nM osimertinib, parental and PC9-PIK3CAm cells) is “downregulation of P-EGFR levels and MAPK signalling”. In addition, the “cell density higher than parental PC9 cells” value in assay [5] is reported as 2 ×. Besides, the “clonogenic growth: resistance to osimertinib compared to parental cells” value in assay [5] (3 or 5 weeks) is given as “milder resistance phenotype; also recorded: develop resistance”; in [9], “resulted in osimertinib resistance; also recorded: develop resistance”. The “osimertinib-induced apoptotic response (caspase 3/7 activation) compared to parental PC9” value in [6] is “diminished apoptotic response”; in [6] (listed as Osimertinib), “Diminished apoptotic response”. Further, the “p-S6 levels (western blot)” value in assay [7] is on record as “persistent p-S6 levels”. The “outgrowth of PIK3CA-mutant cells under osimertinib selection” value in [8] was “conferred resistance”. For the same molecule, in assay [9] (160 nM osimertinib, after 3 weeks), the “cell density (% surface) higher than parental HCC-827” value is given as 20 X.
